In data set [1] the test system is E. coli AS19 [pLBII-VIM2]. Nature of the data set: microbe, parasite or virus in culture. In kind it is cell-based, Escherichia coli. To be noted: for zone of inhibition at 40 µg/disc: Escherichia coli, read-out: Inhibition zone diameter AS 19, difference between measured diameter and diameter without compound. The protocol:
(§1) A] A disk-diffusion test in which the inhibitor was added (40-320 μg) to a disk containing a defined amount of a β-lactam antibiotic (such as 30 μg cefoxitin) was used to evaluate the antimicrobial activity (corresponding to the diameter of the growth inhibition zone, expressed in mm) of the combination when compared of that of the antibiotic alone.
(§2) These tests were performed on isogenic laboratory strains (such as Escherichia coli DH5a or XL-1) producing a defined MBL after its transformation with a pLB-II plasmid derivative (such as pLBII-VIM-2) [Borgianni L., Vandenameele J., Matagne A., Bini L., Bonomo R. A., Frere J. M., Rossolini G. M., Docquier J. D. (2010) Antimicrob. Agents Chemother. 54, 3197-3204] harbouring a cloned gene encoding the functional metallo-β-lactamase. Alternatively, hyperpermeable strains (such as Escherichia coli AS19) were used instead of Escherichia coli DH5α or XL-1.

The target in another data set is NDM-1 (Klebsiella pneumoniae, UniProt C7C422). Nature of the data set: Enzymatic assay for determination of inhibition constants, reporter substrate method, purified NDM-1.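 Further: purified enzyme activity followed as absorbance change from reporter substrate hydrolysis on a UV-Vis spectrophotometer or plate reader, 50 mM HEPES pH 7.5.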 It is filed as biochemical. To be noted: isolated MBL, competitive inhibition model.
NDM-1, sequence (C7C422 29-270, looked up, species assumed): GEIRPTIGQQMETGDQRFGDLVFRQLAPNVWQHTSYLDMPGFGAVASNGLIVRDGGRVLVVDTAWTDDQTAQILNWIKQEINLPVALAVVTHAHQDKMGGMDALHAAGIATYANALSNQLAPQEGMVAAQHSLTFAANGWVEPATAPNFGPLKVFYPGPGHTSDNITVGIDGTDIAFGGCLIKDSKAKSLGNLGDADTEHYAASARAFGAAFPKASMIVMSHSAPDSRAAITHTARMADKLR
A further data set addresses VIM-1 (Pseudomonas aeruginosa, UniProt A0A0F7KYQ8). Nature of the data set: Enzymatic assay for determination of inhibition constants, reporter substrate method, purified VIM-1.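 Further: initial hydrolysis rates of a reporter β-lactam (imipenem, meropenem, cefotaxime or nitrocefin) followed by absorbance change, purified enzyme at 1–70 nM in 50 mM HEPES pH 7.5.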 It is filed as biochemical. The note with it: isolated MBL, competitive inhibition model.
The target of a further data set is VIM-4 (Pseudomonas aeruginosa, UniProt Q8KRJ3). Nature of the data set: Enzymatic assay for determination of inhibition constants, reporter substrate method, purified VIM-4.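 Further: purified VIM-4 (1-70 nM) in 50 mM HEPES pH 7.5, reporter substrate hydrolysis rate tracked by absorbance change (nitrocefin 482 nm, imipenem or meropenem 300 nm, cefotaxime 260 nm).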 The note with it: at 100 μM (maximal tested concentration). In kind it is biochemical.
Data set [2] in a line: Cell membrane integrity assay, LDH release, compound cytotoxicity. To be noted: human, HeLa cells, 0.001 to 1.2 mM, read-out: IC50, compound concentration inducing 50% cytotoxicity (LDH release). In kind it is cell-based. The protocol:
Selected compounds were tested for their ability to induce the lysis of eukaryotic cells by measuring the release of lactate dehydrogenase enzyme (LDH) from HeLa cells, after incubating such cells for 24 hours (37° C., 5% CO2) in Dulbecco's modified Eagle medium supplemented with 10% fetal bovine serum, 4.5 mg/ml glucose and 2 mM L-glutamine in the absence and presence of the compound at concentrations ranging from 0.001 to 1.2 mM. LDH activity was determined using commercial kits (such as the CytoTox 96® Non-Radioactive Cytotoxicity Assay, Promega, Madison, Wis., U.S.A.) in the samples, containing HeLa cells incubated with the various concentrations of the assayed compound or with the solvent or buffer used to resuspend such compounds (vehicle control).
Further controls included samples containing the medium only (medium control) or in which cell lysis was induced by the addition of 9% Triton X-100 (maximum LDH release control). The percentage of cytotoxicity was computed as 100×(Sample LDH release)/(maximum LDH release). The variation of the percentage of cytotoxicity is usually dependent on the compound concentration and allowed to compute an IC50 value, corresponding to the compound concentration inducing 50% cytoxicity.

The next data set addresses VIM-2 (Escherichia coli, UniProt Q5U7L7). Nature of the data set: Enzymatic assay for determination of inhibition constants, reporter substrate method, purified VIM-2.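 Further: purified VIM-2 hydrolysing a reporter substrate (imipenem, meropenem, cefotaxime or nitrocefin), reaction rate read as absorbance change, HEPES 50 mM at pH 7.5.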 It is filed as biochemical.
A further data set has as its target IMP-1 (Serratia marcescens, UniProt P52699). Nature of the data set: Enzymatic assay for determination of inhibition constants, reporter substrate method, purified IMP-1.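 On all read-outs here: purified IMP-1 (1-70 nM) hydrolysing a reporter substrate, initial rates followed as absorbance change at 260, 300 or 482 nm in 50 mM HEPES pH 7.5.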 It is filed as biochemical. To be noted: for Ki: isolated MBL, competitive inhibition model.
Data set [3] concerns E. coli LZ2310[pLBII-VIM2] (E. coli K12 ΔnorE ΔmdfA N43 acrA1). In kind it is cell-based, Escherichia coli. The note with it: EDTA 220 μg added to cefoxitin disk (30 μg); cefoxitin alone 14 mm. Here is the method:
as §1, §2

Data set [4] concerns K. pneumoniae S1-002 (blaVIM-4+). Nature of the data set: Broth microdilution MIC of meropenem in absence and presence of MBL inhibitor, S1-002. It is filed as cell-based. The note with it: MBL inhibitor fixed at 32 μg/ml, Mueller-Hinton broth, duplicate.
Procedure: (§3) This method was performed in agreement with the CLSI recommendations (document M07-A10, 2015, “Methods for Dilution Antimicrobial Susceptibility Tests for Bacteria That Grow Aerobically”).
(§4) MIC values of meropenem (MEM) were determined in duplicate in Mueller-Hinton broth as recommended by CLSI (document M07-A10, 2015), in absence and presence of a fixed concentration of MBL inhibitor (32 μg/ml).
For data set [5], the system named is K. pneumoniae SI-001 (blaVIM-1+). Nature of the data set: Broth microdilution MIC of meropenem in absence and presence of MBL inhibitor, SI-001. It is filed as cell-based. To be noted: MBL inhibitor fixed at 32 μg/ml, Mueller-Hinton broth, duplicate. (In broth dilution the organism is exposed to a series of concentrations in liquid medium.)
Procedure: as §3, §4
Where [6] appears, read: as listed in Table 2, read-out: Ki on VIM-2.
Where [7] appears, read: isolated MBL, competitive inhibition model, read-out: Ki VIM-2.

The results in this text go back to patent publication US20220000841A1, “INHIBITORS OF METALLO-BETA-LACTAMASES” (CENTRE NATIONAL DE LA RECHERCHE SCIENTIFIQUE, priority 2018, published 2022).

Molecules are shown by their SMILES. Where two headings read alike, the source gives them in different places.

IMP-1, sequence (P52699 19-246, looked up, species assumed): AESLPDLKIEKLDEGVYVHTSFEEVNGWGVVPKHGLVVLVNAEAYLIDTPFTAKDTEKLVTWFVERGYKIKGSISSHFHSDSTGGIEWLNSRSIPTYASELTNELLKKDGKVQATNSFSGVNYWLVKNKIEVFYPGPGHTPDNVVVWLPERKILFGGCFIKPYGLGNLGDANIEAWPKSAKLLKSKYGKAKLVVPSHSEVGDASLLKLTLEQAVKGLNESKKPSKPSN
Procedure for NDM-1: (§5) The reaction rate was measured as the variation of absorbance observed upon substrate hydrolysis in a UV-Vis spectrophotometer or microplate reader at a wavelength of 300 nm (imipenem, meropenem), 260 nm (cefotaxime) or 482 nm (nitrocefin) in 50 mM HEPES buffer (pH 7.5) and in the presence of a purified MBL enzyme (such as VIM-1, VIM-2, VIM-4, NDM-1 and IMP-1, at a final concentration ranging 1-70 nM).
(§6) The inhibition constants (Ki) were determined on the basis of a model of competitive inhibition by analyzing the dependence of the ratio v0/vi (v0, hydrolysis velocity in the absence of inhibitor; vi, hydrolysis velocity in the presence of inhibitor) as a function of [I] as already described [Docquier J. D., Lamotte-Brasseur J., Galleni M., Amicosante G., Frère J. M., Rossolini G. M. (2003) J. Antimicrob. […] The slope of the plot of v0/vi vs [I], which corresponds to Km^S/(Km^S+[S])Ki (where Km^S is the Km value of the reporter substrate and [S] its concentration in the reaction mixture) and allowed the calculation of the Ki value. Alternatively, a Dixon plot analysis was carried out, by measuring the initial hydrolysis rates in the presence of variable concentrations of inhibitor and substrate.
Procedure for VIM-2: as §5, §6

One may read the Ki as the dissociation constant of the complex between target and ligand, obtained from inhibition or displacement. One may read the melting point as the temperature, or range, at which the solid turns liquid. In turn, `Cc1ccccc1-c1n[nH]c(=S)n1CCc1ccccc1C(=O)O` [Compound 14, 2-{2-[3-(2-methylphenyl)-5-sulfanylidene-4,5-dihydro-1H-1,2,4-triazol-4-yl]ethyl}benzoic acid] displayed a melting point of 180 to 181 °C. In data set [1], the zone of inhibition at 40 µg/disc worked out at 3 mm. Besides, the Ki on NDM-1 is > 100 µM. At VIM-1, this molecule gave a Ki of 1 to 10 µM. The “% inhibition VIM-4” value at VIM-4 amounted to 80% at 100 μM. In addition, in data set [2], the IC50 at 24 h is > 1200 µM. Further, the Ki on VIM-2 (setting [6]) is < 1 µM. The Ki at VIM-2 (setting [7]) was < 1 µM. The Ki on IMP-1 was > 100 µM.
`COc1ccc(O)c(-c2n[nH]c(=S)n2CCc2ccccc2C(=O)O)c1` [Compound 4, 2-{2-[3-(2-hydroxy-5-methoxyphenyl)-5-sulfanylidene-4,5-dihydro-1H-1,2,4-triazol-4-yl]ethyl}benzoic acid] registered a melting point of 88 to 89 °C. In addition, in data set [1], the zone of inhibition at 40 µg/disc came to 4 mm. For the same molecule, the Ki on NDM-1 is > 100 µM. Besides, the Ki at VIM-1 is > 100 µM. For the same molecule, the “% inhibition VIM-4” value on VIM-4 is 80% at 100 μM. The Ki on VIM-2 (setting [6]) was < 1 µM. Further, the Ki on VIM-2 (setting [7]) was < 1 µM. Further, the Ki at IMP-1 was > 100 µM.
The molecule `O=C(O)c1ccccc1CCn1c(-c2cccs2)n[nH]c1=S` [Compound 13, 2-{2-[3-(thiophen-2-yl)-5-sulfanylidene-4,5-dihydro-1H-1,2,4-triazol-4-yl]ethyl}benzoic acid] returned a melting point of 195 to 196 °C. Further, the zone of inhibition at 40 µg/disc in data set [1] came out at 4 mm. For the same molecule, on NDM-1, the Ki is > 100 µM. Besides, the Ki on VIM-1 is > 100 µM. Moreover, the IC50 at 24 h in data set [2] was > 1200 µM. Also, at VIM-2 (setting [6]), the Ki fell in the range of 1 to 10 µM. Further, the Ki at VIM-2 (setting [7]) was 1 to 10 µM. For the same molecule, on IMP-1, the inhibition constant (Ki) is > 100 µM.
`O=C(O)CCCCn1c(-c2ccccc2)n[nH]c1=S` [Compound 15, 5-(3-phenyl-5-sulfanylidene-4,5-dihydro-1H-1,2,4-triazol-4-yl)pentanoic acid] yielded a melting point of 176 to 177 °C. Also, the zone of inhibition at 40 µg/disc in data set [1] was determined as 3 mm. The Ki at NDM-1 is > 100 µM. On VIM-1, the Ki was > 100 µM. Also, the “% inhibition VIM-4” value on VIM-4 came to 85% at 100 μM. Moreover, the inhibition constant Ki on VIM-2 (setting [6]) is 1 to 10 µM. For the same molecule, the Ki at VIM-2 (setting [7]) fell in the range of 1 to 10 µM. At IMP-1 (at 200 μM (maximal tested concentration)), the “% inhibition IMP-1” value is given as 60% at 200 μM.
As to `O=C(O)c1ccccc1CCn1c(-c2ccco2)n[nH]c1=S` [Compound 12, 2-{2-[3-(furan-2-yl)-5-sulfanylidene-4,5-dihydro-1H-1,2,4-triazol-4-yl]ethyl}benzoic acid], the melting point lay within 210 to 211 °C. The zone of inhibition at 40 µg/disc in data set [1] turned out to be 3 mm. In addition, the Ki on NDM-1 was > 100 µM. At VIM-4, the “% inhibition VIM-4” value worked out at 70% at 100 μM. In [2], the IC50 at 24 h is > 1200 µM. At VIM-2 (setting [6]), the Ki is < 1 µM. For the same molecule, the Ki on VIM-2 (setting [7]) was < 1 µM. For the same molecule, at IMP-1, the inhibitory constant (Ki) is > 100 µM.
Turning to `O=C(O)CN(CCN(CC(=O)O)CC(=O)O)CC(=O)O` [EDTA, reference compound], the “Inhibition zone diameter AS 19” value in data set [1] (EDTA 220 μg added to cefoxitin disk (30 μg), cefoxitin alone 16 mm) is recorded as 26 mm. Also, the “Inhibition zone diameter LZ 2310” value in [3] was found to be 30 mm.
As to `S=c1[nH]nc(-c2ccccc2)n1CCSCc1ccccc1` [Compound 33, 4-[2-(benzylsulfanyl)ethyl]-3-phenyl-4,5-dihydro-1H-1,2,4-triazole-5-thione], the melting point was 108 to 109 °C. For the same molecule, in data set [4], the “MIC potentiation of meropenem (x.log2 dilutions), K. pneumoniae S1-002 (blaVIM-4+)” value turned out to be 2 log2 dilutions. The same molecule registered a Ki on NDM-1 of 1 to 10 µM. For the same molecule, the Ki at VIM-1 is < 1 µM. Further, the “MIC potentiation of meropenem (x.log2 dilutions), K. pneumoniae SI-001 (blaVIM-1+)” value in data set [5] worked out at 3 log2 dilutions. Moreover, the Ki at VIM-2 (setting [7]) was 1 to 10 µM. Moreover, the Ki at IMP-1 was > 100 µM.
Regarding `O=C(O)C(CCCn1c(-c2ccccc2)n[nH]c1=S)N(Cc1ccccc1)Cc1ccccc1` (stereo not drawn) [Compound 68, 2-[Bis(phenylmethyl)amino]-5-(3-phenyl-5-sulfanylidene-4,5-dihydro-1H-1,2,4-triazol-4-yl)pentanoic acid], the “MIC potentiation of meropenem (x.log2 dilutions), K. pneumoniae S1-002 (blaVIM-4+)” value in data set [4] is listed as 2 log2 dilutions. In addition, the inhibition constant Ki at NDM-1, on VIM-1 and at IMP-1 was > 100 µM throughout. Also, the “MIC potentiation of meropenem (x.log2 dilutions), K. pneumoniae SI-001 (blaVIM-1+)” value in data set [5] is recorded as 2 log2 dilutions. Also, the “% inhibition VIM-4” value on VIM-4 stood at 65% at 100 μM. Also, the “% inhibition VIM-2” value at VIM-2 (at 100 μM (maximal tested concentration)) is on record as 65% at 100 μM.
